Test results as given in US20240043427A1 (Gilead Sciences, Inc., priority 2020, published 2024).
pEC50, pIC50: −log10 of the molar value.

Legend:
CD73 [1] = target: T1, CD73 (Homo sapiens (Human), UniProt P21589); experiment: MDA-MB-231 Cell Based CD73 Activity Assay (DMEM); conditions: MDA-MB-231-GFP cells, DMEM medium with 10% human plasma, 200 uM AMP
Procedure: MDA-MB-231 Cell Based CD73 Activity Assay (DMEM) MDA-MB-231-GFP cells were seeded in 384-well plates (Greiner 781946) at a density of 3000 cells per well in 50 μL of DMEM medium with 10% HP (human plasma). Cells were plated into assay plate with compounds pre-spotted, for an overnight compound treatment. 50 uL of 400 uM AMP (final concentration will be 200 uM) was added using Bio-tek dispenser. Plates were incubated for 100 mins. […] The samples were analyzed using Rapid fire.

CD73 [2] = target: T1, CD73; format: biochemical; conditions: 1 mM NaH2PO4 in enzyme buffer, CD73 0.3 nM, AMP 15 uM

T1 sequence (P21589 27-574): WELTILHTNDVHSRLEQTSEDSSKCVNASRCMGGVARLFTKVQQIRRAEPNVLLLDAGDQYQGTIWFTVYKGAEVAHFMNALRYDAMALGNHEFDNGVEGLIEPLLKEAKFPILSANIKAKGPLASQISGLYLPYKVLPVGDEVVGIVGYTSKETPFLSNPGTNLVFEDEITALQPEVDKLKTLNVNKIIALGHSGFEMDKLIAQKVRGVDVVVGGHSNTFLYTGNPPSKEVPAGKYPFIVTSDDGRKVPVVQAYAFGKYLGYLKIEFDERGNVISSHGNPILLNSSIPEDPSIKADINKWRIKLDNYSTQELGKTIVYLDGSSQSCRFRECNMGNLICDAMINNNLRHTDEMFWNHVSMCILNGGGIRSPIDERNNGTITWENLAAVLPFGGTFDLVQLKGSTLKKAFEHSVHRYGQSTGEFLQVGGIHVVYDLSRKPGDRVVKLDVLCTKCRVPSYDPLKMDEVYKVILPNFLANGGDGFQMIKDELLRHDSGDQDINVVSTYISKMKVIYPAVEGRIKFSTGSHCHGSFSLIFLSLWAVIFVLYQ

Structure (SMILES)	pEC50 (CD73 [1])	pIC50 (CD73 [2])
O=C(c1cn2nc(-c3c[nH]c(=O)[nH]c3=O)cc([C@H]3C[C@@H]3c3ccc(F)cc3)c2n1)N1CC(F)(F)C1 (racemic) [Example 198, 5-[2-(3,3-difluoroazetidine-1-carbonyl)-8-[(1S,2S)-2-(4-fluorophenyl)cyclopropyl]imidazo[1,2-b]pyridazin-6-yl]-1H-pyrimidine-2,4-dione]	6.72	7.07
O=C(c1cn2nc(-c3c[nH]c(=O)[nH]c3=O)cc([C@H]3C[C@@H]3c3ccc(F)cc3)c2n1)N1CCC(F)(F)C1 (racemic) [Example 199, 5-[2-(3,3-difluoropyrrolidine-1-carbonyl)-8-[(1S,2S)-2-(4-fluorophenyl)cyclopropyl]imidazo[1,2-b]pyridazin-6-yl]-1H-pyrimidine-2,4-dione]	6.12	< 6.60
O=c1[nH]cc(-c2cc([C@H]3C[C@@H]3c3ccc4onc(C(F)(F)F)c4c3)c3nccn3n2)c(=O)[nH]1 (racemic) [Example 327, 5-(8-((1S,2S)-2-(3-(trifluoromethyl)benzo[d]isoxazol-5-yl)cyclopropyl)imidazo[1,2-b]pyridazin-6-yl)pyrimidine-2,4(1H,3H)-dione]	7.30	8.75
N#Cc1ccc([C@H]2C[C@@H]2c2cc(-c3c[nH]c(=O)[nH]c3=O)nn3c(F)cnc23)cn1 (racemic) [Example 375, 5-((1S,2S)-2-(6-(2,4-dioxo-1,2,3,4-tetrahydropyrimidin-5-yl)-3-fluoroimidazo[1,2-b]pyridazin-8-yl)cyclopropyl)picolinonitrile]	7.95	8.55
O=C1N(CC(F)(F)F)c2cc([C@H]3C[C@@H]3c3cc(-c4c[nH]c(=O)[nH]c4=O)nn4ccnc34)ccc2C12CC2 (racemic) [Example 382, 5-(8-((1S,2S)-2-(2′-oxo-1′-(2,2,2-trifluoroethyl)spiro[cyclopropane-1,3′-indolin]-6′-yl)cyclopropyl)imidazo[1,2-b]pyridazin-6-yl)pyrimidine-2,4(1H,3H)-dione]	9.89	8.79
O=c1[nH]cc(-c2cc([C@H]3C[C@@H]3c3ccc4cnn(-c5ccc(C(F)(F)F)cn5)c4c3)c3nccn3n2)c(=O)[nH]1 (racemic) [Example 383, 5-(8-((1S,2S)-2-(1-(5-(trifluoromethyl)pyridin-2-yl)-1H-indazol-6-yl)cyclopropyl)imidazo[1,2-b]pyridazin-6-yl)pyrimidine-2,4(1H,3H)-dione]	7.31	8.74
CC(C)c1nn(CC(F)(F)F)c2cc([C@H]3C[C@@H]3c3cc(-c4c[nH]c(=O)[nH]c4=O)nn4ccnc34)ccc12 (racemic) [Example 396, 5-(8-((1S,2S)-2-(3-isopropyl-1-(2,2,2-trifluoroethyl)-1H-indazol-6-yl)cyclopropyl)imidazo[1,2-b]pyridazin-6-yl)pyrimidine-2,4(1H,3H)-dione]	9.62	8.70
O=c1[nH]cc(-c2cc([C@@H]3[C@@H](c4ccc(F)c(F)c4)C3(F)F)c3nccn3n2)c(=O)[nH]1 (racemic) [Example 552, 5-(8-((1S,3S)-3-(3,4-difluorophenyl)-2,2-difluorocyclopropyl)imidazo[1,2-b]pyridazin-6-yl)pyrimidine-2,4(1H,3H)-dione]	7.82	8.56
O=c1[nH]cc(-c2cc([C@H]3C[C@@H]3c3ccccc3Cl)c3nccn3n2)c(=O)[nH]1 (racemic) [Example 555, 5-(8-((1S,2S)-2-(2-chlorophenyl)cyclopropyl)imidazo[1,2-b]pyridazin-6-yl)pyrimidine-2,4(1H,3H)-dione]	6.57	7.88
O=c1[nH]cc(-c2cc([C@H]3C[C@@H]3c3ccc(OC(F)F)cc3)c3nccn3n2)c(=O)[nH]1 (racemic) [Example 556, 5-(8-((1S,2S)-2-(4-(difluoromethoxy)phenyl)cyclopropyl)imidazo[1,2-b]pyridazin-6-yl)pyrimidine-2,4(1H,3H)-dione]	7.86	8.47
O=c1[nH]cc(-c2cc([C@H]3C[C@@H]3c3ccc(OCC(F)(F)F)cc3)c3nccn3n2)c(=O)[nH]1 (racemic) [Example 564, 5-(8-((1S,2S)-2-(4-(2,2,2-trifluoroethoxy)phenyl)cyclopropyl)imidazo[1,2-b]pyridazin-6-yl)pyrimidine-2,4(1H,3H)-dione]	7.50	8.60
O=c1[nH]cc(-c2cc([C@H]3C[C@@H]3c3ccc(Cl)nc3)c3nccn3n2)c(=O)[nH]1 (racemic) [Example 568, 5-(8-((1S,2S)-2-(6-chloropyridin-3-yl)cyclopropyl)imidazo[1,2-b]pyridazin-6-yl)pyrimidine-2,4(1H,3H)-dione]	8.09	8.55
Cc1nc2ccc([C@H]3C[C@@H]3c3cc(-c4c[nH]c(=O)[nH]c4=O)nn4ccnc34)cc2s1 (racemic) [Example 570, 5-(8-((1S,2S)-2-(2-methylbenzo[d]thiazol-6-yl)cyclopropyl)imidazo[1,2-b]pyridazin-6-yl)pyrimidine-2,4(1H,3H)-dione]	9.08	9.10
O=c1[nH]cc(-c2cc([C@H]3C[C@@H]3c3ccc(OCC(F)F)cc3)c3nccn3n2)c(=O)[nH]1 (racemic) [Example 574, 5-(8-((1S,2S)-2-(4-(2,2-difluoroethoxy)phenyl)cyclopropyl)imidazo[1,2-b]pyridazin-6-yl)pyrimidine-2,4(1H,3H)-dione]	7.76	9.14
O=c1[nH]cc(-c2cc([C@H]3C[C@@H]3c3ccc(Cl)cn3)c3nccn3n2)c(=O)[nH]1 (racemic) [Example 576, 5-(8-((1S,2S)-2-(5-chloropyridin-2-yl)cyclopropyl)imidazo[1,2-b]pyridazin-6-yl)pyrimidine-2,4(1H,3H)-dione]	8.16	8.69
Cc1nc2ccc([C@H]3C[C@@H]3c3cc(-c4c[nH]c(=O)[nH]c4=O)nn4c(F)cnc34)cc2s1 (racemic) [Example 580, 5-(3-fluoro-8-((1S,2S)-2-(2-methylbenzo[d]thiazol-6-yl)cyclopropyl)imidazo[1,2-b]pyridazin-6-yl)pyrimidine-2,4(1H,3H)-dione]	8.24	8.79
O=c1[nH]cc(-c2cc([C@H]3C[C@@H]3c3ccc4ncsc4c3)c3ncc(F)n3n2)c(=O)[nH]1 (racemic) [Example 581, 5-(8-((1S,2S)-2-(benzo[d]thiazol-6-yl)cyclopropyl)-3-fluoroimidazo[1,2-b]pyridazin-6-yl)pyrimidine-2,4(1H,3H)-dione]	8.67	9.05
O=c1[nH]cc(-c2cc([C@H]3C[C@@H]3c3ncc(C(F)(F)F)cc3F)c3nccn3n2)c(=O)[nH]1 (racemic) [Example 582, 5-(8-((1S,2S)-2-(3-fluoro-5-(trifluoromethyl)pyridin-2-yl)cyclopropyl)imidazo[1,2-b]pyridazin-6-yl)pyrimidine-2,4(1H,3H)-dione]	7.81	8.30
O=c1[nH]cc(-c2cc([C@H]3C[C@@H]3c3ncc(Cl)cc3F)c3ncc(F)n3n2)c(=O)[nH]1 (racemic) [Example 583, 5-(8-((1S,2S)-2-(5-chloro-3-fluoropyridin-2-yl)cyclopropyl)-3-fluoroimidazo[1,2-b]pyridazin-6-yl)pyrimidine-2,4(1H,3H)-dione]	8.02	8.58
O=c1[nH]cc(-c2cc([C@H]3C[C@@H]3c3ccc4nc(C(F)F)sc4c3)c3nccn3n2)c(=O)[nH]1 (racemic) [Example 589, 5-(8-((1S,2S)-2-(2-(difluoromethyl)benzo[d]thiazol-6-yl)cyclopropyl)imidazo[1,2-b]pyridazin-6-yl)pyrimidine-2,4(1H,3H)-dione]	8.59	9.20
O=c1[nH]cc(-c2cc([C@H]3C[C@@H]3c3cc4c(cn3)cnn4CC(F)(F)F)c3nccn3n2)c(=O)[nH]1 (racemic) [Example 591, 5-(8-((1S,2S)-2-(1-(2,2,2-trifluoroethyl)-1H-pyrazolo[4,3-c]pyridin-6-yl)cyclopropyl)imidazo[1,2-b]pyridazin-6-yl)pyrimidine-2,4(1H,3H)-dione]	9.77	9.14
O=c1[nH]cc(-c2cc([C@H]3C[C@@H]3c3cc(OCC4CC4(F)F)c(Cl)cn3)c3nccn3n2)c(=O)[nH]1 (mixture of isomers) [Example 597, 5-(8-((1S,2S)-2-(5-chloro-4-((2,2-difluorocyclopropyl)methoxy)pyridin-2-yl)cyclopropyl)imidazo[1,2-b]pyridazin-6-yl)pyrimidine-2,4(1H,3H)-dione]	8.23	8.55
O=c1[nH]cc(-c2cc([C@H]3C[C@@H]3c3ccc4ccc(=O)n(CC(F)(F)F)c4c3)c3nccn3n2)c(=O)[nH]1 (racemic) [Example 598, 5-(8-((1S,2S)-2-(2-oxo-1-(2,2,2-trifluoroethyl)-1,2-dihydroquinolin-7-yl)cyclopropyl)imidazo[1,2-b]pyridazin-6-yl)pyrimidine-2,4(1H,3H)-dione]	9.96	8.95
O=c1[nH]cc(-c2cc([C@H]3C[C@@H]3c3ccc4ccc(OCC(F)(F)F)nc4c3)c3nccn3n2)c(=O)[nH]1 (racemic) [Example 599, 5-(8-((1S,2S)-2-(2-(2,2,2-trifluoroethoxy)quinolin-7-yl)cyclopropyl)imidazo[1,2-b]pyridazin-6-yl)pyrimidine-2,4(1H,3H)-dione]	7.39	8.62
O=c1[nH]cc(-c2cc([C@H]3C[C@@H]3c3cc(OCC(F)(F)F)c(Cl)cn3)c3nccn3n2)c(=O)[nH]1 (racemic) [Example 600, 5-(8-((1S,2S)-2-(5-chloro-4-(2,2,2-trifluoroethoxy)pyridin-2-yl)cyclopropyl)imidazo[1,2-b]pyridazin-6-yl)pyrimidine-2,4(1H,3H)-dione]	8.18	8.59
